Measured values: the CheMixHub viscosity set

Experiment: xn = mol fraction of the nth substance listed
Conditions: 101.33 kPa

CCCCCCCCCCCC(=O)OCC + CCCCO
Conditions | viscosity [mPa·s]
293.15 K, x1 = 0.1001 | 2.703
293.15 K, x1 = 0.2001 | 2.643
293.15 K, x1 = 0.3002 | 2.654
293.15 K, x1 = 0.4 | 2.718
293.15 K, x1 = 0.5001 | 2.8
293.15 K, x1 = 0.6002 | 2.891
293.15 K, x1 = 0.6997 | 3.008
293.15 K, x1 = 0.8 | 3.111
293.15 K, x1 = 0.9001 | 3.225
293.15 K, x2 = 0.1019 | 3.227
293.15 K, x2 = 0.2001 | 3.082
293.15 K, x2 = 0.3 | 2.969
293.15 K, x2 = 0.4001 | 2.866
293.15 K, x2 = 0.5 | 2.781
293.15 K, x2 = 0.6 | 2.699
293.15 K, x2 = 0.7 | 2.641
293.15 K, x2 = 0.8 | 2.624
293.15 K, x2 = 0.8999 | 2.688
298.15 K, x2 = 0.1019 | 2.872
298.15 K, x2 = 0.2001 | 2.757
298.15 K, x2 = 0.3 | 2.645
298.15 K, x2 = 0.4001 | 2.566
298.15 K, x2 = 0.5 | 2.477
298.15 K, x2 = 0.6 | 2.409
298.15 K, x2 = 0.7 | 2.363
298.15 K, x2 = 0.8 | 2.342
298.15 K, x2 = 0.8999 | 2.395
303.15 K, x1 = 0.0997 | 2.129
303.15 K, x1 = 0.2001 | 2.093
303.15 K, x1 = 0.2998 | 2.118
303.15 K, x1 = 0.3532 | 2.142
303.15 K, x1 = 0.4999 | 2.233
303.15 K, x1 = 0.5982 | 2.313
303.15 K, x1 = 0.6997 | 2.386
303.15 K, x1 = 0.7986 | 2.474
303.15 K, x1 = 0.9006 | 2.582
303.15 K, x2 = 0.1019 | 2.575
303.15 K, x2 = 0.2001 | 2.468
303.15 K, x2 = 0.3 | 2.391
303.15 K, x2 = 0.4001 | 2.309
303.15 K, x2 = 0.5 | 2.241
303.15 K, x2 = 0.6 | 2.164
303.15 K, x2 = 0.7 | 2.122
303.15 K, x2 = 0.8 | 2.092
303.15 K, x2 = 0.8999 | 2.131
308.15 K, x2 = 0.1019 | 2.311
308.15 K, x2 = 0.2001 | 2.225
308.15 K, x2 = 0.3 | 2.147
308.15 K, x2 = 0.4001 | 2.084
308.15 K, x2 = 0.5 | 2.015
308.15 K, x2 = 0.6 | 1.943
308.15 K, x2 = 0.7 | 1.9
308.15 K, x2 = 0.8 | 1.868
308.15 K, x2 = 0.8999 | 1.896
313.15 K, x1 = 0.1 | 1.744
313.15 K, x1 = 0.1724 | 1.724
313.15 K, x1 = 0.2999 | 1.72
313.15 K, x1 = 0.4004 | 1.742
313.15 K, x1 = 0.4998 | 1.781
313.15 K, x1 = 0.5998 | 1.818
313.15 K, x1 = 0.7011 | 1.862
313.15 K, x1 = 0.7997 | 1.927
313.15 K, x1 = 0.8926 | 1.979
313.15 K, x2 = 0.1019 | 2.112
313.15 K, x2 = 0.2001 | 2.018
313.15 K, x2 = 0.3 | 1.946
313.15 K, x2 = 0.4001 | 1.881
313.15 K, x2 = 0.5 | 1.816
313.15 K, x2 = 0.6 | 1.754
313.15 K, x2 = 0.7 | 1.709
313.15 K, x2 = 0.8 | 1.685
313.15 K, x2 = 0.8999 | 1.695
318.15 K, x2 = 0.1019 | 1.934
318.15 K, x2 = 0.2001 | 1.855
318.15 K, x2 = 0.3 | 1.787
318.15 K, x2 = 0.4001 | 1.725
318.15 K, x2 = 0.5 | 1.66
318.15 K, x2 = 0.6 | 1.605
318.15 K, x2 = 0.7 | 1.563
318.15 K, x2 = 0.8 | 1.529
318.15 K, x2 = 0.8999 | 1.534
323.15 K, x2 = 0.1019 | 1.745
323.15 K, x2 = 0.2001 | 1.674
323.15 K, x2 = 0.3 | 1.615
323.15 K, x2 = 0.4001 | 1.563
323.15 K, x2 = 0.5 | 1.508
323.15 K, x2 = 0.6 | 1.447
323.15 K, x2 = 0.7 | 1.399
323.15 K, x2 = 0.8 | 1.374
323.15 K, x2 = 0.8999 | 1.364
